Assays:
[1] = biological target: Rho-associated protein kinase 1 (Homo sapiens, UniProt Q13464); assay: Inhibition of recombinant human GST-tagged ROCK1 catalytic domain expressed in baculovirus expression system by Z'-LYTE assay
[2] = biological target: T1, Serine/threonine-protein kinase TAO2 (Homo sapiens, UniProt Q9UL54); assay: Inhibition of recombinant human GST-tagged TAOK2 catalytic domain expressed in baculovirus expression system by Z'-LYTE assay
T1 sequence (Q9UL54 whole entry): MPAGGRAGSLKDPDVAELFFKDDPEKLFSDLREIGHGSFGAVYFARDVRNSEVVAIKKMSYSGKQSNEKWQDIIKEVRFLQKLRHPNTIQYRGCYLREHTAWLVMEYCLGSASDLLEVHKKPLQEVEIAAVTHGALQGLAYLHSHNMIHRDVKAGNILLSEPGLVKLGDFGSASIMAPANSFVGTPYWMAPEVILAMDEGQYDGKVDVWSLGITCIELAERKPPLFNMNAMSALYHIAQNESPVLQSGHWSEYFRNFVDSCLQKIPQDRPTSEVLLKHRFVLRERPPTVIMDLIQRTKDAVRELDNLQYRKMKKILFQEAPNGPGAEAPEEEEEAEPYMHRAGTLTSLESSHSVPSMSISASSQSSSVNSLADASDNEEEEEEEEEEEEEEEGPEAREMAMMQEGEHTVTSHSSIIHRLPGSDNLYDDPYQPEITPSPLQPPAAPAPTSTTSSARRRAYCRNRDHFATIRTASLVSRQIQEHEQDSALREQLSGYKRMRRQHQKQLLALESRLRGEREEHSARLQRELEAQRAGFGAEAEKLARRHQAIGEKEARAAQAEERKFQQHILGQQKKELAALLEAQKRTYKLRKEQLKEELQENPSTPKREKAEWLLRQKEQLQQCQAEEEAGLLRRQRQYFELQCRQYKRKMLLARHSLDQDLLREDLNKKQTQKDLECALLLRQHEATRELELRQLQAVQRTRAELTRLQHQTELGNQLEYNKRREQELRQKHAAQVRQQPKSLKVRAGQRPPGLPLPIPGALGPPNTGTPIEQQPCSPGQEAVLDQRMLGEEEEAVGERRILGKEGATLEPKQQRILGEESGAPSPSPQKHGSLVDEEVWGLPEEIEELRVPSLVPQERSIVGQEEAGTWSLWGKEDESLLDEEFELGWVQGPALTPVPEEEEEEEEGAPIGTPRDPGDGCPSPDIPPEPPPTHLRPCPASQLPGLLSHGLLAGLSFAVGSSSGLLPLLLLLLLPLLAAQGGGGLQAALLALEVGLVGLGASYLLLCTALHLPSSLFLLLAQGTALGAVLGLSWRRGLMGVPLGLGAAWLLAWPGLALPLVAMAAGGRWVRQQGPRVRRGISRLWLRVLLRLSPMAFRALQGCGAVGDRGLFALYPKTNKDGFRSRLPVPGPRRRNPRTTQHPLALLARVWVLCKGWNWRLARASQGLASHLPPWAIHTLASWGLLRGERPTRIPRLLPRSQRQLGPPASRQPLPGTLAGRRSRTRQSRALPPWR

[3] = biological target: T2, Serine/threonine-protein kinase TBK1 (Homo sapiens, UniProt Q9UHD2); assay: Inhibition of full-length recombinant human GST-tagged TBK1 expressed in insect cells by Z'-LYTE assay
T2 sequence (Q9UHD2 whole entry): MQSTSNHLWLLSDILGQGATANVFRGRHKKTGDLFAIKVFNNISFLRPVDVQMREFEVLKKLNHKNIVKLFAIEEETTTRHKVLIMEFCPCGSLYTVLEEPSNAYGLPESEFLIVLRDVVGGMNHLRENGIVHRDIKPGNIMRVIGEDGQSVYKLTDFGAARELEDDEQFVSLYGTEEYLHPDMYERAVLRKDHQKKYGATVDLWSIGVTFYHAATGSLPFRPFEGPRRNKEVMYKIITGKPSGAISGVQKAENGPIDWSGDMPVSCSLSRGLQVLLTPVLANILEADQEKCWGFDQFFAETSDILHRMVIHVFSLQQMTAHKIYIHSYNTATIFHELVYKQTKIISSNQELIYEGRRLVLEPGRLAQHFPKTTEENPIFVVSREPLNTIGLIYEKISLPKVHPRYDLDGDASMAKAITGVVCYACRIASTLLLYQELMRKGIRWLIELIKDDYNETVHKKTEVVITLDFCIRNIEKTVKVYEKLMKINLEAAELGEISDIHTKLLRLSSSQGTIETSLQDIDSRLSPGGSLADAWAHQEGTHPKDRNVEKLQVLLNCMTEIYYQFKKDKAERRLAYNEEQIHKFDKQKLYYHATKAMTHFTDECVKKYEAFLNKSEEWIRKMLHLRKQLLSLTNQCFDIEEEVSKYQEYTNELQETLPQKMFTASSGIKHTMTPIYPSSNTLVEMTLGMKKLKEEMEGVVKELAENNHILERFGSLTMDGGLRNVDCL

[4] = biological target: Tyrosine-protein kinase ABL1 (Homo sapiens, UniProt P00519); assay: Inhibition of full-length human His-tagged ABL1 expressed in baculovirus expression system by Z'-LYTE assay
[5] = biological target: T3, Activin receptor type-1B (Homo sapiens, UniProt P36896); assay: Inhibition of recombinant human GST-tagged ALK4 catalytic domain expressed in baculovirus expression system by Z'-LYTE assay
T3 sequence (P36896 whole entry): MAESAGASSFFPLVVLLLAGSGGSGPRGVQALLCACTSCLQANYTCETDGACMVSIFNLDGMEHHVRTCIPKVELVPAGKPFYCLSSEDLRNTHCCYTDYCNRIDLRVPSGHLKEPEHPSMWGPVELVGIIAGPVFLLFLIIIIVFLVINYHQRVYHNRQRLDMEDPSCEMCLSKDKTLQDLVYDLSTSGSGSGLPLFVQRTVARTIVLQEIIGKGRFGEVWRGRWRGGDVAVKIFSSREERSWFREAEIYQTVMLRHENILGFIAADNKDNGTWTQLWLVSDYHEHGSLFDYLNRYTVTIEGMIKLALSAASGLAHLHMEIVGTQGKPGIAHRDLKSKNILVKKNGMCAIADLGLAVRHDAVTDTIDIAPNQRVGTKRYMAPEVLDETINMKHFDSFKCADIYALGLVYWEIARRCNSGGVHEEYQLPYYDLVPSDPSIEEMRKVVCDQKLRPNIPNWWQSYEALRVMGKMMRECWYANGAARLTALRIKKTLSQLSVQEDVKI

[6] = biological target: Protein-tyrosine kinase 6 (Homo sapiens, UniProt Q13882); assay: Inhibition of full-length recombinant human His-tagged PTK6 expressed in baculovirus expression system by Z'-LYTE assay
[7] = biological target: Leucine-rich repeat serine/threonine-protein kinase 2 (Homo sapiens, UniProt Q5S007); assay: Inhibition of recombinant human GST-tagged LRRK2 catalytic domain expressed in baculovirus expression system by Adapta assay

Tyrosine-protein kinase ABL1, sequence (P00519 whole entry, the tested form may be a part): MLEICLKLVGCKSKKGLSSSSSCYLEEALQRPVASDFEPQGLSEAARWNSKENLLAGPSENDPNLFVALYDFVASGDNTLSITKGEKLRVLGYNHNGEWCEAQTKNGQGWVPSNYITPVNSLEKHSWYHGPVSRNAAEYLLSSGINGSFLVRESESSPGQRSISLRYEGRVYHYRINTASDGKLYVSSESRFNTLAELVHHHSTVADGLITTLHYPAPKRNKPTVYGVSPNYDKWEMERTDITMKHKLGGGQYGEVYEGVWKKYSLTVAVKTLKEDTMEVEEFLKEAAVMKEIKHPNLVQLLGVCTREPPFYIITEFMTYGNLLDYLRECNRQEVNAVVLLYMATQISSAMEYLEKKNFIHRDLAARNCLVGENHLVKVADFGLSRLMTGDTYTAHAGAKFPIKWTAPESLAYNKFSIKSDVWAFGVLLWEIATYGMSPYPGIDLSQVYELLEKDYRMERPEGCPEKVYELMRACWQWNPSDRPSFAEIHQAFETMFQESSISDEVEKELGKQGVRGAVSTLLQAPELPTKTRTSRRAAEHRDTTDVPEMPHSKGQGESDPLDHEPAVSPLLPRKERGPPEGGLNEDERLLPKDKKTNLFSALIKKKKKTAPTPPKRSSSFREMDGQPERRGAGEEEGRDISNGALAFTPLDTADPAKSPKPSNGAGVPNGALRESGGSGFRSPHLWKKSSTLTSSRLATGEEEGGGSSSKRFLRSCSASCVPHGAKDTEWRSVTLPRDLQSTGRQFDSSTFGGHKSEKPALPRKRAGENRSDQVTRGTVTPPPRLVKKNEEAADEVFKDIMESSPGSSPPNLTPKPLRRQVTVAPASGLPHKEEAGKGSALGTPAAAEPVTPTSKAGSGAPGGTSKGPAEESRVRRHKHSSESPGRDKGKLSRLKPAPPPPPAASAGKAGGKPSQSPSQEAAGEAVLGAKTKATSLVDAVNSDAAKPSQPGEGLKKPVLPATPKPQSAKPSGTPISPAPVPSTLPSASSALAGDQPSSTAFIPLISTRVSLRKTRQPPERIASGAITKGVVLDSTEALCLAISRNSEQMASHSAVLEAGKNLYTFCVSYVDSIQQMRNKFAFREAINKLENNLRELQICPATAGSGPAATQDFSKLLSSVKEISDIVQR
Rho-associated protein kinase 1, sequence (Q13464 whole entry, the tested form may be a part): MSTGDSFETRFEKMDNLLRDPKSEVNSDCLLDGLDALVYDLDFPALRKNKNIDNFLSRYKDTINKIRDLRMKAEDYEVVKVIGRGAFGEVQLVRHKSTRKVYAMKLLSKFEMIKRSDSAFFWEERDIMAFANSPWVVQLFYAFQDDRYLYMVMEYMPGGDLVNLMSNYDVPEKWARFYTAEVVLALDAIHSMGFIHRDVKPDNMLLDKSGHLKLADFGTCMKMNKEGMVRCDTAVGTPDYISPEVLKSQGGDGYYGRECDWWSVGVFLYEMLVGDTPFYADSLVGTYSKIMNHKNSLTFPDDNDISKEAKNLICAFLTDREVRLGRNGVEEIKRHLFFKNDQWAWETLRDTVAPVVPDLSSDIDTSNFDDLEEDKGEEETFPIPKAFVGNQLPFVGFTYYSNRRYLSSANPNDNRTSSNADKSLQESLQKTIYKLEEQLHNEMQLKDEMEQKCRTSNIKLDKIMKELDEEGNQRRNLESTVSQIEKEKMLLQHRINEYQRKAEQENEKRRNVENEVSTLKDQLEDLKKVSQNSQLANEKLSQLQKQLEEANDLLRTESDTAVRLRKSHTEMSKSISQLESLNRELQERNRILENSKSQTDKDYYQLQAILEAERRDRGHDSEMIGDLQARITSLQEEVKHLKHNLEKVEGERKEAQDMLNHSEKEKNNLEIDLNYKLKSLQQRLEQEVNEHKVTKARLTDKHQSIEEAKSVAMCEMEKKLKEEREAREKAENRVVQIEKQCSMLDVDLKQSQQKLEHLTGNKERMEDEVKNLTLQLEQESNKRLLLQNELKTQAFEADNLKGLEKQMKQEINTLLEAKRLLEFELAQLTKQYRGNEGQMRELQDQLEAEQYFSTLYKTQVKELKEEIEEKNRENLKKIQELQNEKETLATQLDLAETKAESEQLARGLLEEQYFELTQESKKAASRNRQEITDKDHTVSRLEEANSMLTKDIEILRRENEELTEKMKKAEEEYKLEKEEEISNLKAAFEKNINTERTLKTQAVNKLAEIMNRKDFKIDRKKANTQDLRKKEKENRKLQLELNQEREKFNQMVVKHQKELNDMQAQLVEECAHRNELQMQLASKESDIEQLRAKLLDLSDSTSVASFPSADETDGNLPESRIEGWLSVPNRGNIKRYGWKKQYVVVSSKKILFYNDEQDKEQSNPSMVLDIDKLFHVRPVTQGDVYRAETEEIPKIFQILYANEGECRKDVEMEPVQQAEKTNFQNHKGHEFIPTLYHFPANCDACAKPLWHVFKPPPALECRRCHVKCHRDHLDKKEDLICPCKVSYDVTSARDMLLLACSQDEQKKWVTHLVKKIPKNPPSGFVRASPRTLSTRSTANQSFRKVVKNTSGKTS
Protein-tyrosine kinase 6, sequence (Q13882 whole entry, the tested form may be a part): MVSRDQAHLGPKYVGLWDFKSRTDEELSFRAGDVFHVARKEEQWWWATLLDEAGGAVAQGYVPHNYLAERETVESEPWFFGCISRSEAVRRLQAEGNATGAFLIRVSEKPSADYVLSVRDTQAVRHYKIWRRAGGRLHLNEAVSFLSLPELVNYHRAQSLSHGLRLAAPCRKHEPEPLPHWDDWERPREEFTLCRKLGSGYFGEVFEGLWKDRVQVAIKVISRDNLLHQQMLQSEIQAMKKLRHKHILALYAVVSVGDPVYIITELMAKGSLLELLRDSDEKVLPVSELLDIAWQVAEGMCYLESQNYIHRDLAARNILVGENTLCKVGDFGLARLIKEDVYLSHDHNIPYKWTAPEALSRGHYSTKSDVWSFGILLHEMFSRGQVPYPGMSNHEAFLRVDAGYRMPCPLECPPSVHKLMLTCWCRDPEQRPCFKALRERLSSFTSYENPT

SMILES	IC50 [1] [nM]	IC50 [2] [nM]	IC50 [3] [nM]	IC50 [4] [nM]	IC50 [5] [nM]	IC50 [6] [nM]	IC50 [7] [nM]
Cn1cc(-c2cnc3c(-c4csc(C(=O)N[C@@H]5CCCC[C@@H]5N)c4)cnn3c2)cn1 (racemic)	17	420	< 1	1.3	730	390	3.1
Cn1cc(-c2cnc3c(-c4csc(C(=O)NCC(F)(F)F)c4)cnn3c2)cn1	780	25000	< 10	< 10	170	> 100000	< 10
Cc1sc(C(=O)N[C@@H]2[C@H](N)CCCC2(F)F)cc1-c1cnn2cc(Cl)cnc12	2300	11000	< 10	9100	> 100000	> 100000	62
O=C(NCC(F)(F)F)c1cc(-c2cnn3cc(-c4ccc(OCCN5CCCCC5)cc4)cnc23)cs1	360	2700	< 10	< 10	200	1700	14

From ChEMBL document CHEMBL4477252, “Optimization of microtubule affinity regulating kinase (MARK) inhibitors with improved physical properties” (Bioorg Med Chem Lett, 2016)
